Measurements: article PMC12592319, “Predicting Food Effect On Oral Drug Absorption For Solubility-Epithelial Membrane Permeation-Limited Cases With Bile Micelle Solubilization” (Pharmaceutical Research, 2025)
In brackets after ≈: the same amount, converted by molar mass. Read-outs that look alike come from different tables or passages of the source.

Tests used:
[1] = cited from earlier work
[2] = FaRLS diagnosis by Fa equation and Peff equation (Table S3, dose number); conditions: for Dose number, Fasted / Dose number, Fed: clinical dose; for Dose number, Fasted: Sdissolv in FaSSIF; for Dose number, Fed: Sdissolv in FeSSIF; for fraction unbound: human, bile micelles in FaSSIF, pH 6.5
[3] = μFLUX dissolution-permeation flux experiment; conditions: for fraction unbound: pH 6.5, fu; for fraction unbound / fu: calculated by Eq. (9) (Sdissolv,u/Sdissolv); for kdiss: calculated from the initial dissolution rate in μFLUX; for Ratio (fed/fasted) CD,final / Ratio (fed/fasted) JμFLUX: FeSSIF/FaSSIF, μFLUX dose 1/10 of the clinical dose; for CD,final: measured after filtration, 1/10 of clinical dose, mean ± S.D., N = 3; for Pep,u,μFLUX: Peff,μFLUX/fu; for JμFLUX: average of 90 to 120 min (pranlukast 210 to 240 min); for Peff,μFLUX: calculated based on CD,final; for Time after which CD reached a plateau: donor solution
[4] = Octanol-water partition/distribution coefficient (logPoct, logDoct); type: physicochemical; conditions: calculated from logPoct and pKa using the Henderson-Hasselbalch equation
Text: Table II Physicochemical Properties and Caco-2 Permeability of Model Drugs | column: logDoct,pH 6.5^c

[5] = assumed to be the same as Caco-2 Papp, cited from earlier work
[6] = pKa measurement (SiriusT3, UV-metric/pH-metric titration); type: physicochemical; conditions: ionic strength 0.168 mol/L, 37°C
Method: The pKa measurements were performed using a SiriusT3 automatic titrator, with a spectrometric (UV-metric) or titration (pH-metric) method. The UV-metric method used a fiber optic dip probe, a deuterium lamp UV light source, and a photodiode array detector to capture the absorption spectra of a sample solution over the course of three titrations, across the pH range 2.0–12.0. […] Titrations were carried out under a controlled temperature of 37 ± 0.2°C.
SiriusT3 software v2.0 was used to apply principal component analysis to the spectral data to resolve the molar absorptivity spectra of each sample species and determine the psKa values of the compounds in the co-solvent. The pKa values under aqueous conditions were calculated from the co-solvent data using the Yasuda-Shedlovsky extrapolation method.
Additional potentiometric titrations were performed for each drug, which confirmed that no additional non-UV active pKas were present within the titration pH range.

[7] = Equilibrium solubility measurement (shake-flask) in blank FaSSIF, FaSSIF, FeSSIF; type: physicochemical; conditions: for solubility at 72 h: thermodynamic from solid, pH 6.5, 37°C, mean ± S.D., N = 3; for Ratio (fed/fasted) Sdissolv: FeSSIF/FaSSIF, corresponds to Fafed/Fafasted predicted by Eq. (18)
Method: A shake-flask method was used for equilibrium solubility measurement. Each drug (10 mg) was added to the 15 mL test tube. Blank FaSSIF (28.7 mM phosphate buffer, pH 6.5 adjusted by NaOH), FaSSIF (3 mM TC, 0.75 mM EL in blank FaSSIF), or FeSSIF (15 mM TC, 3.75 mM EL in blank FaSSIF) was added. The test tube was placed horizontally in a reciprocal shaker. After shaking for 72 h at 37°C (at 90 rpm, motion width: 2.5 cm), the sample was filtered (hydrophilic PVDF, φ = 4.0 mm, pore size: 0.22 µm, Merck). The first few droplets were discarded to avoid filter adsorption. The concentration of each drug was measured by UV absorbance. […] After measuring the final pH (9615S-10D Standard ToupH electrode (HORIBA Advanced Techno Co., Ltd., Kyoto, Japan)), the residual particles were collected by vacuum filtration and analyzed by powder X-ray diffraction (PXRD) (Supplemental Information Figure S1).

[8] = clinical AUC ratio fed/fasted, humans; cited from earlier work
[9] = system: Caco-2; parameters: method as in PMID 9795088, PMID 10767597, PMID 15032311; conditions: cited from earlier work
[10] = parameters: method as in PMID 31863733; conditions: previous prediction; cited from earlier work
[11] = parameters: method as in PMID 20307655, PMID 19465123, PMID 17828749, PMID 23994640; conditions: pH 6.5; cited from earlier work
[12] = bile micelles in FaSSIF, FaSSIF
[13] = bile micelles in FeSSIF, FeSSIF
[14] = FaSSIF, read-out: Solubility, FaSSIF
[15] = FeSSIF, read-out: Solubility, FeSSIF
[16] = blank FaSSIF, read-out: Solubility, Blank FaSSIF

SMILES	logPoct [1]	Dose number, Fasted [2]	Dose number, Fed [2]	fraction unbound [3, 12]	fraction unbound [3, 13]	logDoct,pH 6.5 [4]	pKa ([6]; acidic pKa, read-out: pKa (A))	Ratio (fed/fasted) CD,final [3]	Ratio (fed/fasted) JμFLUX [3]	CD,final ([3]; donor FaSSIF pH 6.5) [µg/mL]	Pep,u,μFLUX ([3]; donor FaSSIF)	JμFLUX ([3]; donor FaSSIF)	Peff,μFLUX ([3]; donor FaSSIF)	CD,final ([3]; donor FeSSIF pH 6.5)	Pep,u,μFLUX ([3]; donor FeSSIF)	JμFLUX ([3]; donor FeSSIF)	Peff,μFLUX ([3]; donor FeSSIF)	Ratio (fed/fasted) Sdissolv [7]	Ratio (fed/fasted) AUCr [8]	Caco-2 Papp [9]	further results
CC1(C)CCC(CN2CCN(c3ccc(C(=O)NS(=O)(=O)c4ccc(NCC5CCOCC5)c([N+](=O)[O-])c4)c(Oc4cnc5[nH]ccc5c4)c3)CC2)=C(c2ccc(Cl)cc2)C1 [venetoclax]	> 5																				
C#C[C@]1(O)CC[C@H]2[C@@H]3CCC4=Cc5oncc5C[C@]4(C)[C@H]3CC[C@@]21C [Danazol]	4.5	43	14	0.011	0.0043	4.5															
Cc1cn(-c2cc(NC(=O)c3ccc(C)c(Nc4nccc(-c5cccnc5)n4)c3)cc(C(F)(F)F)c2)cn1.Cl [nilotinib HCl]	> 5																				
COc1cc(F)c(C(C)C)cc1-c1ccc(C(F)(F)F)cc1CN1C(=O)O[C@H](c2cc(C(F)(F)F)cc(C(F)(F)F)c2)[C@@H]1C [anacetrapib]	> 5																				
CCc1c(Cl)c(O)c(Cl)c(O)c1C(=O)O[C@H]1[C@H](O)[C@H](OC)[C@H](OC/C2=C\C=C\C[C@H](O)/C(C)=C/[C@H](CC)[C@@H](O[C@@H]3OC(C)(C)[C@@H](OC(=O)C(C)C)[C@H](O)[C@@H]3O)/C(C)=C/C(C)=C/C[C@@H]([C@@H](C)O)OC2=O)O[C@@H]1C [Fidaxomicin]	3.7	20	7	0.6	0.26	2.3	5.15	3.1	0.81	72 ± 0	17 ± 2 10^–5 cm/s	7.4 ± 0.7 10–^3 μg/cm^2/s	10 ± 1 10^–5 cm/s	220 ± 0^ h μg/mL	10 ± 1 10^–5 cm/s	6.0 ± 0.7 10–^3 μg/cm^2/s	2.7 ± 0.3 10^–5 cm/s	2.3	1.0		Dn ([2]; Fasted): 3.7; Do ([2]; Fasted): 20; Pep ([2]; Fasted): 0.055 10^-6 cm/s; Pep' ([2]; Fasted): 0.55 10^-6 cm/s; Dn ([2]; Fed): 9.3; Do ([2]; Fed): 7.2; Pep ([2]; Fed): 0.024 10^-6 cm/s; Pep' ([2]; Fed): 0.24 10^-6 cm/s; fraction unbound [2]: 0.6; Pep,u ([5]; Fed): 0.092 10^-6 cm/s; kdiss ([3]; Fasted): 0.0002967 s⁻¹; Pep,u,μFLUX less in the fed condition than in the fasted condition ([3]; FeSSIF vs FaSSIF): about 40%; kdiss ([3]; Fed): 0.0007389 s⁻¹; Time after which CD reached a plateau [3]: 20 min; solubility at 72 h [7, 14]: 77 ± 1 µg/mL (≈ 72.8 µM); solubility at 72 h [7, 15]: 178 ± 2 µg/mL (≈ 168 µM); solubility at 72 h [7, 16]: 46 ± 1 µg/mL (≈ 43.5 µM)
Cc1ccc(-c2cc(C(F)(F)F)nn2-c2ccc(S(N)(=O)=O)cc2)cc1 [Celecoxib]	3.5	67	25	0.069		3.5		1.7	1.7	37 ± 1		6.7 ± 0.4 10–^3 μg/cm^2/s	18 ± 2 10^–5 cm/s	62 ± 1 µg/mL		11 ± 1 10–^3 μg/cm^2/s	18 ± 1 10^–5 cm/s	2.2	1.6	18 [56] 10^–6 cm/s	fu ([3]; FeSSIF): 0.031; Time after which CD reached a plateau [3]: 20 min; Food effect predicted by the GUT framework [10]: 2.3; Solubility, Blank FaSSIF [11]: 3.2 µg/mL (≈ 8.39 µM); Solubility, FaSSIF [11]: 46.2 µg/mL (≈ 121 µM); Solubility, FeSSIF [11]: 103 µg/mL (≈ 270 µM)
COc1ccccc1Oc1c(NS(=O)(=O)c2ccc(C(C)(C)C)cc2)nc(-c2ncccn2)nc1OCCO [Bosentan]	3.8	23	9	0.73	0.34	2.2	4.87	1.9	0.91	49 ± 0	18 ± 2 10^–5 cm/s	6.7 ± 0.8 10–^3 μg/cm^2/s	14 ± 2 10^–5 cm/s	95 ± 0 µg/mL	19 ± 1 10^–5 cm/s	6.1 ± 0.2 10–^3 μg/cm^2/s	6.4 ± 0.2 10^–5 cm/s	2.1	1.1	1 [52] 10^–6 cm/s	Dn ([2]; Fasted): 5.9; Do ([2]; Fasted): 23; Pep ([2]; Fasted): 0.73 10^-6 cm/s; Pep' ([2]; Fasted): 7.3 10^-6 cm/s; Dn ([2]; Fed): 9.1; Do ([2]; Fed): 9.2; Pep ([2]; Fed): 0.34 10^-6 cm/s; Pep' ([2]; Fed): 3.4 10^-6 cm/s; fraction unbound [2]: 0.73; Pep,u ([5]; Fasted): 1 10^-6 cm/s; Pep,u ([5]; Fed): 1 10^-6 cm/s; kdiss ([3]; Fasted): 0.0004708 s⁻¹; kdiss ([3]; Fed): 0.0007219 s⁻¹; Time after which CD reached a plateau [3]: 20 min; solubility at 72 h [7, 14]: 41 ± 1 µg/mL (≈ 74.3 µM); solubility at 72 h [7, 15]: 87 ± 1 µg/mL (≈ 158 µM); solubility at 72 h [7, 16]: 30 ± 1 µg/mL (≈ 54.4 µM)
O=C(Nc1cccc2c(=O)cc(-c3nnn[nH]3)oc12)c1ccc(OCCCCc2ccccc2)cc1 [Pranlukast]		20	2	0.038	0.004			20	2.4	56 ± 1	10 ± 2 10^–5 cm/s	0.20 ± 0.05 10–^3 μg/cm^2/s	0.37 ± 0.09 10^–5 cm/s	1100 ± 0^ h μg/mL	10 ± 4 10^–5 cm/s	0.47 ± 0.16 10–^3 μg/cm^2/s	0.043 ± 0.015 10^–5 cm/s	9.1	1.3	0.08 [54] 10^–6 cm/s	Bound to bile micelles ([3]; FeSSIF): 99.6%; fu ([3]; FeSSIF): 0.0041; Solubility, Blank FaSSIF [11]: 3 µg/mL (≈ 6.23 µM); Solubility, FaSSIF [11]: 88 µg/mL (≈ 183 µM); Solubility, FeSSIF [11]: 800 µg/mL (≈ 1660 µM)
Cc1cc(C#N)cc(C)c1Oc1nc(Nc2ccc(C#N)cc2)nc(N)c1Br [etravirine]	> 5																				
CO[C@H]1/C=C/O[C@@]2(C)Oc3c(C)c(O)c4c(O)c(c5c(nc6cc(C)ccn65)c4c3C2=O)NC(=O)/C(C)=C\C=C\[C@H](C)[C@H](O)[C@@H](C)[C@@H](O)[C@@H](C)[C@H](OC(C)=O)[C@@H]1C [Rifaximin]						2.6	< 2													1 [55] 10^–6 cm/s	pKa ([6]; basic pKa, read-out: pKa (B)): 8.29; solubility at 72 h [7, 14]: 3.4 µg/mL (≈ 4.33 µM); solubility at 72 h [7, 15]: 12 µg/mL (≈ 15.3 µM); solubility at 72 h [7, 16]: 1.8 µg/mL (≈ 2.29 µM)
